Laboratory results as given in ChEMBL document CHEMBL1667857, “Discovery of dual binding site acetylcholinesterase inhibitors identified by pharmacophore modeling and sequential virtual screening techniques” (Bioorg Med Chem Lett, 2011).

Assays:
Acetylcholinesterase = Acetylcholinesterase (Electrophorus electricus, UniProt O42275); assay: Inhibition of electric eel AChE by Ellman's method
[1] = target: Cholinesterase (Homo sapiens) (UniProt P06276); assay: Inhibition of BChE by Ellman's method; conditions: concentration not given here
Sequence of Cholinesterase (Homo sapiens) (P06276 whole entry): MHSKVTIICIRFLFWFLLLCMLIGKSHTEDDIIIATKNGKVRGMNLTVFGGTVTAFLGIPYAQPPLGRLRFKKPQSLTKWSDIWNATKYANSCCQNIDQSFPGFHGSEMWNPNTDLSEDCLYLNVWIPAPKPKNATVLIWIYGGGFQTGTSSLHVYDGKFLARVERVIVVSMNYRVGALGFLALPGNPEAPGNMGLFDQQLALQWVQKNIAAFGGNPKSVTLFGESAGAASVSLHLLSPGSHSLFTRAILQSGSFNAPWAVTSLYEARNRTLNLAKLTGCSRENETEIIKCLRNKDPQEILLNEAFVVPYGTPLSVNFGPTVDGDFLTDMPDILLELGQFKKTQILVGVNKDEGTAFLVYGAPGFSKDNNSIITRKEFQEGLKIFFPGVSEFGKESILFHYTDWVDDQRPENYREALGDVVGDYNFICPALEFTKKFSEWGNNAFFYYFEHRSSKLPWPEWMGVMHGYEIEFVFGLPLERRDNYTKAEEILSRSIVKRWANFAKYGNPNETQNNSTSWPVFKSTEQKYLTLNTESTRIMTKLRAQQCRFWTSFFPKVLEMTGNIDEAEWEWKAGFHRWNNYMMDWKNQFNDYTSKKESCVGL

[2] = Selectivity index, ratio of IC50 for electric eel AChE to IC50 for BChE

Sequence of Acetylcholinesterase (O42275 whole entry): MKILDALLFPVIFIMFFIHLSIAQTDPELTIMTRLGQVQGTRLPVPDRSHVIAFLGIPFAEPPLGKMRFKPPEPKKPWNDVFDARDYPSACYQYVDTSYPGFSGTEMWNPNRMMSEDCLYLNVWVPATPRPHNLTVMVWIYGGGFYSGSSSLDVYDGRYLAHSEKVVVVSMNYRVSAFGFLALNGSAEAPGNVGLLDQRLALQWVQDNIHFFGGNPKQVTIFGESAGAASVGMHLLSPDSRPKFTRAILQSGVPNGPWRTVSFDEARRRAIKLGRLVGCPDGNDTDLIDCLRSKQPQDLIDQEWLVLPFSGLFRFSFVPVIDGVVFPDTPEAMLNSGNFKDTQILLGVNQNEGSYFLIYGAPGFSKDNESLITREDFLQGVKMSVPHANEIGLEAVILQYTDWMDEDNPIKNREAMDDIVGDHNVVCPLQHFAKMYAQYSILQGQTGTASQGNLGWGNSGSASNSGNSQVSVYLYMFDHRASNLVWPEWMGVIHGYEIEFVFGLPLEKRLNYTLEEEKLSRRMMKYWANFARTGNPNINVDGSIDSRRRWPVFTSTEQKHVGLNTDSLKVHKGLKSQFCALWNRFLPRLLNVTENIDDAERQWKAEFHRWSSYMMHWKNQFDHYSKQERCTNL

SMILES | IC50 (Acetylcholinesterase) | inhibition [1] | Ratio IC50 [2]
Cc1ccc(OCC(=O)Nc2ccc(CN3CCCCC3)cc2)c(C)c1 | 1000 nM |  | 
Cc1cc(N2CCCC2)nc2ccc(NC(=O)CCC(=O)NC3CCCCC3)cc12 | 1000 nM |  | 
CCOC(=O)c1c(NC(=O)CCN2CCC(C)CC2)sc2c1C[C@@H](C)CC2 | 5990 nM | < 10% | 
CCc1nc2sc3c(NCCN(C)C)ncnc3c2c2c1CCCC2 | 1000 nM |  | 
CCc1nn(CC(=O)NCCCN2C[C@H](C)C[C@@H](C)C2)c(=O)c2cc3sc(C)cc3n12 | 2000 nM |  | 698
CCOC(=O)c1c(-c2ccc(OC)c(OC)c2)csc1NC(=O)CCN1CCC(C)CC1 | 3280 nM | < 10% | 
CCN(CC)c1ccc(NC(=O)c2nc3nc(C)cc(C(F)F)n3n2)cc1 | 1000 nM |  | 
COc1ccc(Br)cc1C(=O)Nc1ccc(CN2CCCCC2)cc1 | 1000 nM |  | 
O=C(C1CCN(c2nnc(N3CCCC3=O)s2)CC1)N1CCCCCC1 | 1000 nM |  | 342
O=C(CN1CCCCC1)Nc1ccc(NC(=O)CN2CCCCC2)c(Cl)c1 | 1000 nM |  | 
